Data reported in patent US20110039793A1, “Application of ginsenoside Rb1 in preparing medicaments for treating dilated cardiomyopathy” (priority 2008, published 2011).

Columns and labels:
Format in all cases: in vivo
[1] = system: cTnT^R141W transgenic dilated cardiomyopathy mice model; assay: Left ventricular ultrastructure, electron microscopy; conditions: long-term administration
From the text: Effects on the left ventricular ultrastructure of the mice model with dilated cardiomyopathy after a long-term administration of ginsenoside Rb1 (electron microscopy)
Fresh myocardial tissues are fixed with 2.5% glutaraldehyde solution, then post-fixed by 1% osmic acid, embedded by Epon812 after the acetone gradient dehydration, wherein the embedded number is five Epon812 per case, ultra-thin sections are double stained by uranyl acetate and lead citrate, and observing by JEM1230 type projection electron microscope. The apparatuses are JEM1230 type projection electron microscope (Japanese Electronics Company), LEICA UCT type microtome (Germany Leica Company).

[2] = system: cTnT^R141W transgenic dilated cardiomyopathy mice model; assay: Cardiac gene expression, RT-PCR method; conditions: cardiac tissue, long-term administration
Protocol: Effects on some cardiac gene expression of the mice model with dilated cardiomyopathy after a long-term administration of ginsenoside Rb1 (RT-PCR method)
1) Pulverize the tissue in liquid nitrogen, and then add 1 ml Trizol liquid into the 50-100 mg tissue;
2) Place the grinded liquid at RT for 5 min, add 0.2 ml chloroform into the grinded liquid, tightly cap the centrifuge tube, and violently vortex the centrifuge tube for 15 sec;
3) Remove 0.5 ml the upper transparent liquid into a new centrifuge tube, add 0.5 ml isopropanol, placed at RT for 10 min, and centrifugate at 4° C., 12000 g for 10 min;
4) Remove the supernatant, add 1 ml 75% ethanol and centrifugate at 4° C., 7500 g for 5 min;
5) Carefully remove the supernatant, then dried at RT for 5-10 min, and then dissolved in DEPC-treated water.
2. RT-PCR (Reverse Transcription—Polymerase Chain Reaction)
Add the above mixture into the tube in step 1), then incubated at 42° C. for 2 min;
3) Add 1 μl SuperScript, II RT at 42° C. for 50 min;
4) Placed on ice for 15 min;
5) Add 1 μl RNase H, then incubated at 37° C. for 20 min;
6) PCR reaction system is shown as follow:
7) General conditions of PCR are shown as follow. Pre-denaturation at 94° C. for […], and extension at 72° C. for […] And the annealing temperature, the annealing time, the primer sequences and the cyclic numbers are shown in Table 2.
wherein, Gapdh serves as the loading control.

[3] = system: cTnT^R141W transgenic dilated cardiomyopathy mice model; assay: Survival analysis of cTnT^R141W transgenic mice after long-term administration; conditions: 75 mg/kg in drinking water for seven months
Protocol: The positive mice at 1.5 months old are distributed by weight and cardiac function uniformly into the model group and the ginsenoside Rb1 administration group according to the echocardiography result, and each group comprises twelve mice. Ginsenoside Rb1, 75 mg/kg (State Yao zhun Zi, Yun Nan Tean Na Pharmaceutical Co., Ltd) is put into animal drinking water, and continuously administered for seven months.
Individual death occurs in the feeding process of the cTnT^R141W transgenic mice model. From the beginning of administration to the observation endpoint, the death of animal of each group is recorded. The death of animal of the negative control group is zero, and the model group is four, and the ginsenoside Rb1 group is two.

CC(C)=CCC[C@](C)(O[C@@H]1O[C@H](CO[C@@H]2O[C@H](CO)[C@@H](O)[C@H](O)[C@H]2O)[C@@H](O)[C@H](O)[C@H]1O)[C@H]1CC[C@]2(C)[C@@H]1[C@H](O)C[C@@H]1[C@@]3(C)CC[C@H](O[C@@H]4O[C@H](CO)[C@@H](O)[C@H](O)[C@H]4O[C@@H]4O[C@H](CO)[C@@H](O)[C@H](O)[C@H]4O)C(C)(C)[C@@H]3CC[C@]12C [Rb1, ginsenoside Rb1]
intercalated disc structure [1]: clear
mitochondrial structures [1]: most mitochondrial structures are normal
myocytes structure [1]: clear structures
sarcoplasmic reticulum [1]: slightly dilated
expression of Cx40 [2]: increase
expression of E-cadherin [2]: increase
expression of Itga8 [2]: decrease
expression of Itgbp [2]: decrease
expression of P-cadherin [2]: increase
expression of the fibroblast growth factor FGF ([2]; FGF2, 7, 8, 10): improve
mortality rate (survival analysis, FIG. 2) ([3]; vs model group): reduce the mortality rate
death of animal of the group (number) ([3]; group of twelve mice, model group four, negative control zero): two
